{
  "source": "patent US20250281478A1",
  "about": "“METHODS FOR PREVENTING OR TREATING KIDNEY DISEASES” (JEAMOON BEIJING CO., LTD., priority 2022, published 2025)",
  "key": {"[1]": {"test_system": "high glucose-induced HK-2 cells", "test": "RT-PCR of fibrosis markers in high glucose-induced HK-2 cells", "type": "cell-based, human", "conditions": "25 mM D-glucose + LY2922470 10, 50, 500 nM, 48 hours, FIG. 8", "experimental": "• Group A: Control • Group B: HG (25 mM) • Group C: HG (25 mM)+LY (10 nM) • Group D: HG (25 mM)+LY (50 nM) • Group E: HG (25 mM)+LY (500 nM)\n(§1) HK-2 cells were cultured in MEM supplemented with 10% FBS and 1% penicillin-streptomycin solution. The HK-2 cells were taken from liquid nitrogen and quickly thawed in a 37° C. water bath, gently agitated to thaw the cryopreservation medium. After thawing, the cell suspension was transferred to a centrifuge tube containing 3 mL of culture medium and centrifuged at 1000 rpm for 5 min at room temperature to collect the cells. The supernatant was discarded. The cell pellet was resuspended in complete medium (10% FBS) and seeded into culture dishes. The cells were gently pipetted to ensure uniform distribution and incubated at 37° C. with 5% CO2 and saturated humidity.\nOnce cells reached 40%-50% confluency, they were treated according to the grouping described above: Group A received normal HK-2 culture; Group B was treated with 25 mM D-glucose (high glucose); Group C was treated with 25 mM D-glucose and 10 nM LY2922470; Group D was treated with 25 mM D-glucose and 50 nM LY2922470; and Group E was treated with 25 mM D-glucose and 500 nM LY2922470. After 48 hours of culture, samples were collected from each group for RT-PCR analysis."}, "[2]": {"test_system": "mice with sustained adenine-induced renal failure", "test": "Glomerular filtration rate in mice with sustained adenine-induced renal failure (TGFR system)", "type": "in vivo, C57BL/6N mice", "conditions": "3 weeks continuous 0.25% adenine diet, FIG. 4", "experimental": "(§2) • a) Control group: Fed with adenine-free feed; other procedures were the same as those in the model group. • b) Model group: Fed with feed containing 0.25% adenine for modelling. • c) LY-10 mg/kg group: Model+LY2922470 (10 mg/kg, p.o., QD). • d) LY-30 mg/kg group: Model+LY2922470 (30 mg/kg, p.o., QD). • e) LY-60 mg/kg group: Model+LY2922470 (60 mg/kg, p.o., QD). • f) TAK875 group: Model+TAK875 (30 mg/kg, p.o., QD).\n(§3) Except for the control group, all other mice were fed with a diet containing 0.25% adenine for modelling. The control group was fed with a normal diet. All mice were allowed free access to food. One week after modeling, each group of mice was administered the respective treatment via oral gavage once daily in the afternoon for two consecutive weeks. The control group and the model group received vehicle under a same condition. The adenine-containing diet was continuously administered for modeling throughout the treatment period until the end of the experiment. The physical condition of the mice was monitored, and body weight was measured and recorded weekly. Blood samples were collected from the orbital venous plexus at 1 week (post-modeling) and 3 weeks (after 2 weeks of treatment). Serum was separated for the measurement of serum creatinine (CRE) and blood urea nitrogen (BUN). At the end of the two-week treatment, renal function of each group was assessed using a TGFR renal function monitoring and smart analysis system. After testing, tissues were collected from the mice to confirm the efficacy of the treatment.\n(§4) Statistical analyses were performed using GraphPad Prism 8.0 software. Continuous data of each group were expressed as mean+SD. One-way ANOVA was used for multi-group comparisons, and Student's t-test was used for comparisons between two groups. A p-value<0.05 was considered statistically significant. For categorical data, chi-square tests were used to compare between groups, with p<0.05 indicating a statistically significant difference.\nOne week later, LY2922470 or TAK875 was administrated for treatment. […]"}, "[3]": {"test_system": "TGF-β1-induced HK-2 cells", "test": "RT-PCR of fibrosis markers in TGF-β1-induced HK-2 cells", "type": "cell-based, human", "conditions": "10 ng/ml TGF-β1 + LY2922470 10, 50, 500 nM, 48 hours, FIG. 7", "experimental": "• Group A: Control • Group B: TGF-β1 (10 ng/ml) • Group C: TGF-β1 (10 ng/ml)+LY (10 nM) • Group D: TGF-β1 (10 ng/ml)+LY (50 nM) • Group E: TGF-1 (10 ng/ml)+LY (500 nM)\nas §1\nHK-2 cells in a logarithmic growth phase and with good viability were seeded into 24-well plates at a density of 1×10^5 cells/well. Once the cells reached 40-50% confluence, treatments were applied according to the grouping described above: Group A: HK-2 cells were cultured normally; Group B was treated with 10 ng/ml TGF-β1; Group C was treated with 10 ng/ml TGF-β1 and 10 nM LY2922470; Group D was treated with 10 ng/ml TGF-β1 and 50 nM LY2922470; and Group E was treated with 10 ng/ML TGF-β1 and 500 nM LY2922470. […]"}, "[4]": {"test_system": "mice with adenine-induced renal failure", "test": "Serum creatinine (CREA) in adenine-induced renal failure mice", "type": "in vivo, C57BL/6N mice", "conditions": "for CREA after modeling for 3 weeks (after drug administration for 2 weeks) / CREA after modeling for 1 week (before drug administration): mean ± SD", "experimental": "as §2, §3, §4\nMice were fed a 0.25% adenine-containing diet. After one week, the mice were treated with LY2922470 or TAK875. During the treatment period, the adenine-containing diet was continued for modeling. After three weeks of adenine feeding (i.e., two weeks of drug administration), blood samples were collected from the mice, and serum was isolated for CREA and BUN measurements."}, "[5]": {"conditions": "LY2922470 30 mg/kg p.o. QD for 2 weeks"}, "[6]": {"conditions": "based on Tables 2 and 3 (CREA and BUN), p.o."}},
  "data": [
    {"smiles": "CC#C[C@@H](CC(=O)O)c1ccc(OCc2ccc(CN3CCCc4cccc(OC)c43)s2)cc1", "note": "[LY2922470]", "values": [
      {"measurement": "Expression level of Fibronectin (RT-PCR) compared to the high-glucose group", "setting": "[1]", "result": "reduced"},
      {"measurement": "Expression level of α-SMA (RT-PCR) compared to the high-glucose group", "setting": "[1]", "result": "reduced"},
      {"measurement": "Renal function (GFR) improvement among the doses", "setting": "[2]; [5]", "result": "most significant improvement"},
      {"measurement": "Renal function (GFR) compared with the model group", "setting": "[2]; LY2922470 at different doses (10, 30, 60 mg/kg p.o. QD) for 2 weeks", "result": "improved"},
      {"measurement": "Expression level of Fibronectin (RT-PCR) compared to the TGF-β1 group", "setting": "[3]", "result": "dose-dependent decrease"},
      {"measurement": "Expression level of α-SMA (RT-PCR) compared to the TGF-β1 group", "setting": "[3]", "result": "dose-dependent decrease"},
      {"measurement": "CREA level compared with the model group", "setting": "[4]; [5]", "result": "significantly decreased"},
      {"measurement": "CREA after modeling for 3 weeks (after drug administration for 2 weeks)", "setting": "[4]; LY2922470 30 mg/kg p.o. QD", "result": "79.67 ± 19.28", "unit": "µmol/L"},
      {"measurement": "CREA level compared with the model group", "setting": "[4]; LY2922470 60 mg/kg p.o. QD for 2 weeks", "result": "significantly decreased"},
      {"measurement": "CREA after modeling for 3 weeks (after drug administration for 2 weeks)", "setting": "[4]; LY2922470 60 mg/kg p.o. QD", "result": "66.47 ± 13.35", "unit": "µmol/L"},
      {"measurement": "Serum CREA level compared with the model group", "setting": "[4]; LY2922470 at different doses p.o. QD for 2 weeks", "result": "reduced"},
      {"measurement": "Dose with the best effect (CREA, BUN)", "setting": "[4]; [6]", "result": 30, "unit": "mg/kg/day"},
      {"measurement": "Doses with therapeutic efficacy (CREA, BUN)", "setting": "[4]; [6]", "result": "30 to 60", "unit": "mg/kg/day"},
      {"measurement": "CREA after modeling for 1 week (before drug administration)", "setting": "[4]; baseline of the LY2922470 10 mg/kg group", "result": "56.14 ± 13.41", "unit": "µmol/L"},
      {"measurement": "CREA after modeling for 1 week (before drug administration)", "setting": "[4]; baseline of the LY2922470 30 mg/kg group", "result": "54.85 ± 17.55", "unit": "µmol/L"},
      {"measurement": "CREA after modeling for 1 week (before drug administration)", "setting": "[4]; baseline of the LY2922470 60 mg/kg group", "result": "57.02 ± 11.90", "unit": "µmol/L"}
    ]}
  ]
}
